The target in one assay is T1, wild type human CFTR (Homo sapiens, UniProt P13569).
T1 construct: expressed in transfected cells; host or cells: HEK293
The assay is described as follows: Yellow Fluorescent Protein (YFP) halide assay in wild type CFTR (HEK293 cells). In kind it is cell-based. The note with it: HEK293 cells transfected with wild type human CFTR; 24 h incubation; 10 μM forskolin; read-out: EC50 of inhibition of WT CFTR. Here is the method:
To evaluate the ability of a test compound to inhibit wild type CFTR, a YFP halide assay using HEK293 cells transfected with wild type human CFTR was developed. (Galietta, Jayaraman, and Verkman 2001) Cells were incubated during 24 h with a dose range of test compound and the resulting wild type CFTR activity was plotted to obtain the EC50.
Test compounds were also added together with forskolin to wild type CFTR expressing cells in order to fully active the available CFTR at the plasma membrane and determine accurately the inhibition of the channel activity.
HEK293 cells were transfected with 10 to 80 ng of wild type CFTR and 20 ng of plasmid encoding YFP (H148Q/I152L/F47L) using jetPEI (Polyplus transfection). Directly after transfection, cells were seeded in black 96-well plates coated with Poly-D-lysine at a density of 70,000 cells per well. The next day, cells were treated with corrector(s) for 24 h. After this incubation period, cells were washed twice with DPBS with Ca^2+ and Mg^2+. Subsequently, cells were treated with 10 μM forskolin and the desired concentration of potentiator in a volume of 40 μl and incubated at room temperature for 10 min, a time point optimized in previous experiments resulting in a good window (positive control/negative control >2) and signal to background ratio. YFP fluorescence was measured using an EnVision plate reader (PerkinElmer). […]

A further assay has as its target T2, wt CFTR (CFTR channel) (Homo sapiens, UniProt P13569).
T2 construct: evaluate compounds on normal primary bronchial epithelial cells (HBE cells); endogenous in cells; host or cells: normal primary human bronchial epithelial (HBE) cells from donor lungs
The assay is described as follows: TECC assay on normal primary human bronchial epithelial (HBE) cells. In kind it is cell-based. The note with it: 0.3 μM forskolin. Here is the method: The TECC assay is used to evaluate compounds on normal primary bronchial epithelial cells (HBE cells), which are closer to physiological conditions
Bronchial epithelial cells isolated from transplanted lungs from normal (wt CFTR) were isolated from lungs obtained from donors undergoing a planned transplantation. These primary cells were cultured directly on type IV collagen-coated polycarbonate Transwell supports with a diameter of 6.5 mm and pore size of 0.4 μm (Costar, #3397) for 18 to 25 days in air liquid (ali) interface essentially as previously described for TECC. (Fulcher et al. 2005)
Trans-epithelial clamp circuit (TECC) recordings were performed using the TECC instrument developed and sold by EP Design (Bertem, Belgium). During the recording, the epithelial cells were bathed in a NaCl-Ringer solution (120 mM NaCl, 20 mM HEPES, 1.2 mM CaCl2, 1.2 mM MgCl2, 0.8 mM KH2PO4, 0.8 mM K2HPO4, 5 mM glucose, pH 7.4) on both the basolateral (640 μl) and the apical side (160 μl) and kept at 37° C. Apical amiloride was used to inhibit the endogenous ENaC currents (100 μM) while forskolin (0.3 μM) was applied on both the apical and basolateral sides to stimulate CFTR. All triggers and compounds used during the experiment were first dissolved in DMSO to a 1000× concentrated solution, just prior to treatment a 10× stock was prepared in the NaCl-Ringer solution which was used for addition of the correct concentration of trigger and or compound during the experiment. Cells were treated with test compounds for 24 hours before recording and this treatment was repeated in the TECC buffer prior to the electrophysiological recording. Measurements were done during a 20-min timeframe with recordings every 2 min. The transepithelial potential (PD) and transepithelial resistance (Rt) were measured in an open circuit and transformed to Ieq using Ohm's law. The maximal increase in Ieq (Δ Ieq) was used as a measure for the increased CFTR activity.

In assay [1] the test system is PKD1^flox/flox / ubiquitous CreER^T2 mice. Put plainly: In vivo ADPKD mice model in combination with tolvaptan (meta-analysis of two experiments). From the text:
The ADPKD mice model is based on PKD1^flox/flox (with lox sites flanking exons 2-4)/ubiquitous CreER^T2 mice in which the PKD1 gene is ubiquitously knock-out by the activation of the Cre recombinase by treatment of the mice with Tamoxifen at day 12 after birth (in nursing female). Homozygotous knock-out of the PKD1 gene leads to the rapid formation of kidney cysts mimicking to a certain extend the development of ADPKD disease in human.
Before experimentations, mouse colonies of PKD1^flox/flox (with lox sites flanking exons 2-4)/ubiquitous CreER^T2 were maintained at Charles River Laboratories (France). To induce Cre recombinase activity, tamoxifen (60 mg/kg in sunflower oil) was delivered in nursing females by intraperitoneal injection at postnatal day 12. Subsequently, tamoxifen-containing milk was administered to pups. Treatments started at 4 weeks of age for 11 weeks. Tolvaptan was incorporated in diet (0.1%) and given alone or in combination with Cpd 2, administered at 250 mg/kg, q. d., p.o. At initiation of treatment and on a regular basis during the study, serum was collected to determine levels of blood urea nitrogen (BUN) on a Spotchem bioanalyzer. At necropsy, kidneys were collected and weighed to determine kidney weight/body weight ratio.
Two independent experiments were conducted.
A two-way ANOVA with Dunnett post-hoc multiple comparisons of all experimental groups versus the diseased group has been applied to the log Fold Change (log FC) of BUN ([…]) at sacrifice (Week 15) versus BUN at Week 4 as function of Group and Study.
The mean fold change at week 15 (sacrifice) vs week 4 (treatment initiation) is calculated, assuming a 100% change for the diseased group (untreated).

As usually defined, the EC50 is the concentration at which the effect is half-maximal. Broadly, the pIC50 is the IC50 on a negative log10 scale, so that one unit is a factor of ten. A higher pIC50 goes with a low IC50. As a reminder, the IC50 is the concentration at which inhibition is half-maximal.

The structures appear in SMILES notation.

T2 sequence (P13569 whole entry): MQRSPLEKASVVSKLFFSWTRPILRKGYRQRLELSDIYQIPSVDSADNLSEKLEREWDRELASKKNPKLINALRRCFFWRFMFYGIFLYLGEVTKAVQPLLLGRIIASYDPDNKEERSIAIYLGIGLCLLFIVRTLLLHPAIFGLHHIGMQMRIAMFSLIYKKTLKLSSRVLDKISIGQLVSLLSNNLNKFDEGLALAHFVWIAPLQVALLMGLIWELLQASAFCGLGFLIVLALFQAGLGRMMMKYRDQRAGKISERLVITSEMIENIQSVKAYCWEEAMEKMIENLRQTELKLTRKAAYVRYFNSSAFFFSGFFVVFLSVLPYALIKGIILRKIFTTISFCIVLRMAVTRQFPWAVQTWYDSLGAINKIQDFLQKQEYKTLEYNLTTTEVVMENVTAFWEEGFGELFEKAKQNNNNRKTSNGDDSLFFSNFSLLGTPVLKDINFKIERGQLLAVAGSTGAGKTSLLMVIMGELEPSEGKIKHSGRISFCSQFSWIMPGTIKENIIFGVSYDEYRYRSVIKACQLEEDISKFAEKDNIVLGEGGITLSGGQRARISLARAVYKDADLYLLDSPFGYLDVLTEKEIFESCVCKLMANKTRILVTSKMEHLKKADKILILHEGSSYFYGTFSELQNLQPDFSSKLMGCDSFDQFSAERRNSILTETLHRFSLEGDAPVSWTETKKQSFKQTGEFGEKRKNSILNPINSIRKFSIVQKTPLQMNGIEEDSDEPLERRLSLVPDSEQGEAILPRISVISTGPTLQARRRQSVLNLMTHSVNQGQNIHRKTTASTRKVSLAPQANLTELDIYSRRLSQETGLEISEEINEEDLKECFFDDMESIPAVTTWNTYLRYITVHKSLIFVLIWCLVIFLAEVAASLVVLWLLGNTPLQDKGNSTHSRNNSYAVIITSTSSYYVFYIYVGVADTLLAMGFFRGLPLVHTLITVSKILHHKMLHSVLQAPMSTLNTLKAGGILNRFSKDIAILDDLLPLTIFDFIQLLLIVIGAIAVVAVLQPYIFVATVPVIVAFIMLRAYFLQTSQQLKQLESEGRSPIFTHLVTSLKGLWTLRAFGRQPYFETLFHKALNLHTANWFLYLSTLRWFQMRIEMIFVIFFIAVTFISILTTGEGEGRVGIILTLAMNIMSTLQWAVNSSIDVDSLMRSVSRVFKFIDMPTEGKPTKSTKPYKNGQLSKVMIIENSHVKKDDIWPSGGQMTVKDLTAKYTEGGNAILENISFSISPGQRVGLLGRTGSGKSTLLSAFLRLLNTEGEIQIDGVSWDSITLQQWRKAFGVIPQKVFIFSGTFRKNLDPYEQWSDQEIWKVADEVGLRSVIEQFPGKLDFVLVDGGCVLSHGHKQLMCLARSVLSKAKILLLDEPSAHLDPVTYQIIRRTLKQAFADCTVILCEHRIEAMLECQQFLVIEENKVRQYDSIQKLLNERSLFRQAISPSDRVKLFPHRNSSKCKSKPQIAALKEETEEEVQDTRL
T1 sequence (P13569 whole entry): as above

Consider `COC1CCN(C2CCN(c3cc(C(=O)NS(=O)(=O)N(C)C)nc4c3c(C3CCC3)nn4-c3ccc(F)cc3)CC2)CC1` [Cpd 2], for which the EC50 at wild type human CFTR is 102 nM. For the same compound, on wt CFTR (CFTR channel), the pIC50 is 7.50. In addition, the IC50 on wt CFTR (CFTR channel) (read-out: IC50 value (resulting from pIC50) (converted)) is 32 nM.

Regarding `Cc1ccccc1C(=O)Nc1ccc(C(=O)N2CCCC(O)c3cc(Cl)ccc32)c(C)c1` (stereo not drawn) [Tolvaptan, tolvaptan], the “BUN Mean fold changes on week 15 vs week 4” value in assay [1] (Cpd 2 250 mg/kg q.d. p.o., Tolvaptan 0.1% in diet, treatment from 4 weeks of age for 11 weeks) is on record as 1.889. Also, the “BUN fold change vs the diseased group (in words)” value in assay [1] (administered from week 4 to week 15) is recorded as “did not result in a significant fold change”. In addition, in assay [1] (week 15 vs week 4, diseased group = 100, Cpd 2 250 mg/kg q.d. p.o., Tolvaptan 0.1% in diet), the “BUN % of Mean Diseased fold change” value stood at 80.7%.

The values above are taken from patent US12383544B2, “Methods for the treatment of polycystic kidney disease” (Galapagos NV, priority 2019, dated 2025).
